Reference: patent US12054498B2, “Heteroaromatic macrocyclic ether chemotherapeutic agents” (Nuvalent, Inc., priority 2020, dated 2024)
Where two headings read alike, the source gives them in different places.

Assays:
ROS1-positive NSCLC = ROS1-positive NSCLC patients; cited from earlier work
[1] = from Cc1nn(CC2CC2)cc1Cc1nn(C)nc1-c1ccc(F)cc1C(CO[Si](C)(C)C(C)(C)C)Oc1cc(Br)cnc1N; cc_pd bond; 12-membered ring; Pd(OAc)2/cataCXium A/KOAc; 2-methyl-2-butanol; 30.0 mM; 120.0 °C
[2] = cc_pd bond, Pd(OAc)2/cataCXium A, KOAc, 2-methyl-2-butanol, 120.0 °C
[3] = from CCn1ccc(C(=O)c2nn(C)nc2-c2ccc(F)cc2[C@@H](C)Oc2cc(Br)cnc2N)c1; cc_pd bond; 12-membered ring; Pd(OAc)2/cataCXium A/KOAc; 2-methyl-2-butanol; 38.0 mM; 120.0 °C
ALK-wt = target: T1, ALK-wt (Homo sapiens, UniProt Q9UM73); test: Biochemical kinase assay, ALK-wt kinase domain; conditions: apparent inhibitory constant, Morrison equation; ATP 2 mM in substrate solution; read-out: ALK-wt Ki^app
T1 construct: purchased Carna 08-518
T1 sequence (Q9UM73 1116-1392 limits assumed): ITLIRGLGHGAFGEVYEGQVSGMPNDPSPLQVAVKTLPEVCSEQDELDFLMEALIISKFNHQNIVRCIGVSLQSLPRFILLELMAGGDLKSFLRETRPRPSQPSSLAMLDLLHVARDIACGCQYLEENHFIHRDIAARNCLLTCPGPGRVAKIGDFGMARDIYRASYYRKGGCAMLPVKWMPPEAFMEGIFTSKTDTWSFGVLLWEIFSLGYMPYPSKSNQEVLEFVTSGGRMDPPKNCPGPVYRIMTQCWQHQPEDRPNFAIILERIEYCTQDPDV
Outline: (§1)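 Compound in DMSO added first, then substrate solution (ATP 2 mM; AQT0101 or AQT0104, 26 μM; pH 7.5 HEPES, 10 mM MgCl2), then kinase solution with enzyme at 0.5–3 nM depending on construct. Kinetic read every 2 min for 120 min at 30° C; Ki^app by Morrison regression.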

ALK L1196M/G1202R = target: T2, ALK L1196M/G1202R (Homo sapiens, UniProt Q9UM73, G1202R/L1196M); test: Biochemical kinase assay, ALK L1196M/G1202R kinase domain; conditions: apparent inhibitory constant, Morrison equation; ATP 2 mM in substrate solution; read-out: ALK-L1196M-G1202R Ki^app
T2 construct: purchased SignalChem A19-12NG
T2 sequence (Q9UM73 1116-1392 L1196M/G1202R limits assumed): as the sequence (Q9UM73 1116-1392 limits assumed) above, with L81M, G87R counted along it
Outline: as §1

ROS1-wt = target: T3, ROS1-wt (Homo sapiens, UniProt P08922); test: Biochemical kinase assay, ROS1-wt kinase domain; conditions: apparent inhibitory constant, Morrison equation; ATP 2 mM in substrate solution; read-out: ROS1-wt Ki^app
T3 construct: purchased Carna 08-163
T3 sequence (P08922 1945-2222 limits assumed): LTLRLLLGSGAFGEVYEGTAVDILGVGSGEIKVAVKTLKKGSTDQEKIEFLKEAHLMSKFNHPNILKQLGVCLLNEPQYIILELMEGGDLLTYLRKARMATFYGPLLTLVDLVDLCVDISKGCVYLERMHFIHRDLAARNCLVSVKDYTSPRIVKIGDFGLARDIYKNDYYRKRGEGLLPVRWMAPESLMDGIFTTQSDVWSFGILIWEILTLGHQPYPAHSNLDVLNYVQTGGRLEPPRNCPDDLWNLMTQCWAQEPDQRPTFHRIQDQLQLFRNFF
Outline: (§2)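 Kinetic read: 485 nm, 2-min intervals, 120 min, 30 °C. Substrate mix — ATP 2 mM, AQT0101 26 μM, HEPES 50 mM pH 7.5, MgCl2 10 mM. Output: Ki^app, Morrison equation.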

ROS1-G2032R = target: T4, ROS1-G2032R (Homo sapiens, UniProt P08922, G2032R); test: Biochemical kinase assay, ROS1-G2032R kinase domain; conditions: apparent inhibitory constant, Morrison equation; ATP 2 mM in substrate solution; read-out: ROS1-G2032R Ki^app
T4 construct: purchased SignalChem R14-12BG
T4 sequence (P08922 1945-2222 G2032R limits assumed): as the sequence (P08922 1945-2222 limits assumed) above, with G88R counted along it
Outline: as §2

TRKA-wt = target: T5, TRKA-wt (Homo sapiens, UniProt P04629); test: Biochemical kinase assay, TRKA-wt kinase domain; conditions: apparent inhibitory constant, Morrison equation; ATP 2 mM in substrate solution; read-out: TRKA-wt Ki^app
T5 construct: or TRKA-wt (1 nM, BPS Bio, 40280) kinase domains in buffer; purchased BPS Bio 40280
T5 sequence (P04629 510-781 limits assumed): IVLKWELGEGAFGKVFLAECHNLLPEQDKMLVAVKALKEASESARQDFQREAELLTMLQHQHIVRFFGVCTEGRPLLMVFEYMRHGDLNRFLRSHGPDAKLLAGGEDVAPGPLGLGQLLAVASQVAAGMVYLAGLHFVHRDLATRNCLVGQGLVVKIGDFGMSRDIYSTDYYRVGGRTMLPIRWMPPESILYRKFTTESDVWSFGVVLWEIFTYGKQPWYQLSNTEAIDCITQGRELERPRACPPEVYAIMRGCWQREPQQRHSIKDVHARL
Outline: as §1

[4] = target: T6, Ba/F3 cells CD74-ROS1 wild-type (wt) (Homo sapiens, UniProt P08922); test: Ba/F3 cell proliferation assay, CD74-ROS1 wild-type; assay type: cell-based; conditions: 72 hours, CellTiter-Glo
T6 construct: fusion of the C-terminus of ROS1 with the N-terminus of various partner proteins; host or cells: Ba/F3 (RIKEN), retroviral pMSCV-puro; the other entry of the earlier key: CD74 (P04233, HLA class II histocompatibility antigen gamma chain)
T6 sequence (P08922 1883-2347 limits assumed): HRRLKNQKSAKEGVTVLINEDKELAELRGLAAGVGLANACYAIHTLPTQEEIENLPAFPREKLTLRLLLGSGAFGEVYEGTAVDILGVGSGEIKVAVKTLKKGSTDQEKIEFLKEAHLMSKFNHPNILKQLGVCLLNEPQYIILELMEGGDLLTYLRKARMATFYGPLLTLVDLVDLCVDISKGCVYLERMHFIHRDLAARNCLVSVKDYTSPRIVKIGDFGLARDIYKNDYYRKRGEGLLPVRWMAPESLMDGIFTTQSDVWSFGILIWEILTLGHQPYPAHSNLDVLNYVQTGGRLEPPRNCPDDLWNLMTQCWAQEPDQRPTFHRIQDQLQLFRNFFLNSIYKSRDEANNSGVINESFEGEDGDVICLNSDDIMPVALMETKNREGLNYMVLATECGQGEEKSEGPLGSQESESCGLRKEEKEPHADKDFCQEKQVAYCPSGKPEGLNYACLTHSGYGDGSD
Outline: (§3)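 Viability read by CellTiter-Glo luminescence after 72 h exposure to 3-fold serial compound dilutions, four-parameter logistic fitting giving IC50.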

[5] = target: T7, Ba/F3 cells CD74-ROS1 G2032R (Homo sapiens, UniProt P08922, G2032R); test: Ba/F3 cell proliferation assay, CD74-ROS1 G2032R; assay type: cell-based; conditions: 72 hours, CellTiter-Glo
T7 construct: fusion of the C-terminus of ROS1 with the N-terminus of various partner proteins; host or cells: Ba/F3 (RIKEN), retroviral pMSCV-puro; the other entry of the earlier key: CD74 (P04233, HLA class II histocompatibility antigen gamma chain)
T7 sequence (P08922 1883-2347 G2032R limits assumed): as the sequence (P08922 1883-2347 limits assumed) above, with G150R counted along it
Outline: as §3

[6] = target: T8, Ba/F3 cells EML4-ALK wt (variant 1) (Homo sapiens, UniProt Q9UM73); test: Ba/F3 cell proliferation assay, EML4-ALK wt (variant 1); assay type: cell-based; conditions: 72 hours, CellTiter-Glo
T8 construct: echinoderm microtubule-associated protein-like 4 (EML4) gene and the ALK tyrosine kinase domain; host or cells: Ba/F3 (RIKEN), retroviral pMSCV-puro; the other entry of the earlier key: EML4 (Q9HC35, Echinoderm microtubule-associated protein-like 4)
T8 sequence (Q9UM73 with tags, fused parts or gaps): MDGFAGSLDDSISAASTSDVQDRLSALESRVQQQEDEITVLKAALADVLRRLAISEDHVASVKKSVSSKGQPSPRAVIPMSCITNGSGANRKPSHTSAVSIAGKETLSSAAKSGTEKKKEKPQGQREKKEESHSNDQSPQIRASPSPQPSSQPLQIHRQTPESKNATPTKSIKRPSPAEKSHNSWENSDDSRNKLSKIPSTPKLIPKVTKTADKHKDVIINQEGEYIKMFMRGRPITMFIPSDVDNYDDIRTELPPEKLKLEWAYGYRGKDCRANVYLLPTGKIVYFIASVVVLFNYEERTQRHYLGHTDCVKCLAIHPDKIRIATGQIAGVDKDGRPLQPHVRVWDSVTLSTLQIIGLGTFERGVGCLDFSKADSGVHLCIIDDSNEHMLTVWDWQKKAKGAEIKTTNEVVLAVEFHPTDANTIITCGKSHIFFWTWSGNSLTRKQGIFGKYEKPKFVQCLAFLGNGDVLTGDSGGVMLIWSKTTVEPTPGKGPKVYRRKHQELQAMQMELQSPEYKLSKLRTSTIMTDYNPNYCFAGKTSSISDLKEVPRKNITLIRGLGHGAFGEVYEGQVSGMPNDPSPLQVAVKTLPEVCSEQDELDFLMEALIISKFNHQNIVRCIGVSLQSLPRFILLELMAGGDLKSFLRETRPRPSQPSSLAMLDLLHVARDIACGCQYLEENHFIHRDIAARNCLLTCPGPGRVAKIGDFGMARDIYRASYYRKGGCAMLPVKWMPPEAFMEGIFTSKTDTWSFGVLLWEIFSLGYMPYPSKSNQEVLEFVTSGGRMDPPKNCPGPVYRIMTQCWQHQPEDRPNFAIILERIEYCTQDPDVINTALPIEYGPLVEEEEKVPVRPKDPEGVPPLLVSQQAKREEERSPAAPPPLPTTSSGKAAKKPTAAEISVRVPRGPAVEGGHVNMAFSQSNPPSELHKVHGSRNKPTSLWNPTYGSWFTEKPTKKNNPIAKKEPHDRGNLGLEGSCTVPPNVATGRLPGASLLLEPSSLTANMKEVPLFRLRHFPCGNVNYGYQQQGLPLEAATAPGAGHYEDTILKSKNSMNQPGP
Outline: (§4)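 IL-3-independent Ba/F3 monoclones, puromycin-selected, transduced with fusion genes; 1,000 cells/well, 1 day rest, 3-fold compound series, 72 h. Read: CellTiter-Glo luminescence. IC50 from % inhibition vs concentration, 4-parameter logistic.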

[7] = target: T9, Ba/F3 cells EML4-ALK L1196M/G1202R (variant 1) (Homo sapiens, UniProt Q9UM73, G1202R/L1196M); test: Ba/F3 cell proliferation assay, EML4-ALK L1196M/G1202R (variant 1); assay type: cell-based; conditions: 72 hours, CellTiter-Glo
T9 construct: echinoderm microtubule-associated protein-like 4 (EML4) gene and the ALK tyrosine kinase domain; host or cells: Ba/F3 (RIKEN), retroviral pMSCV-puro; the other entry of the earlier key: EML4 (Q9HC35, Echinoderm microtubule-associated protein-like 4)
T9 sequence (Q9UM73 with tags, fused parts or gaps L1196M/G1202R): as the sequence (Q9UM73 with tags, fused parts or gaps) above, with L635M, G641R counted along it
Outline: as §4

Ba/F3 cells TPM3-TRKA = target: T10, Ba/F3 cells TPM3-TRKA (Homo sapiens, UniProt P04629); test: Ba/F3 cell proliferation assay, TPM3-TRKA; assay type: cell-based; conditions: 72 hours, CellTiter-Glo, read-out: TPM3-NTRK1-wt IC50
T10 construct: host or cells: Ba/F3 (RIKEN), retroviral pMSCV-puro; the other entry of the earlier key: TPM3 (P06753, Tropomyosin alpha-3 chain)
T10 sequence (P04629 510-796 limits assumed): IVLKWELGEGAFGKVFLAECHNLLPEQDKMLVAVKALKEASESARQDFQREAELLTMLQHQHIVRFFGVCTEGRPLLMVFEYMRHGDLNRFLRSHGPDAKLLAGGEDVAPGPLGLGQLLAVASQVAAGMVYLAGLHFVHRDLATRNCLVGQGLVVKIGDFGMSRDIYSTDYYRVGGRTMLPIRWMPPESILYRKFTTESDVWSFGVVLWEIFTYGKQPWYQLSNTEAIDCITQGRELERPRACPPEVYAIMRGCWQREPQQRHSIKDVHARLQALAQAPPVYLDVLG
Outline: as §4

[8] = system: TPM3-NTRK1-wt IC50 / primary target IC50 (e.g. CD74-ROS1-wt); test: TRKA selectivity in Ba/F3 cells (TRKA potency divided by primary target potency); assay type: cell-based
Procedure: TRKA selectivity was calculated by dividing a compound's TRKA potency by its primary target potency (e.g. TPM3-NTRK1-wt IC50/CD74-ROS1-wt IC50). Compound selectivity can be interpreted by binning ratio values: bin A for very high selectivity, ratio >30-fold; bin B for high selectivity, ratio >10-fold; bin C for moderate selectivity, ratio ≥1; and bin D for low selectivity, ratio <1. […] (nd=not determined).

For C[C@@H](Oc1cc(-c2cnn(C3CCNCC3)c2)cnc1N)c1c(Cl)ccc(F)c1Cl [Crizotinib, crizotinib], the median progression-free survival (ROS1-positive NSCLC) is listed as 9-19 months and the overall response rate (ROS1-positive NSCLC) is listed as 60-80%.
With Cc1nn(CC2CC2)c2c1Cc1nn(C)nc1-c1ccc(F)cc1C(CO[Si](C)(C)C(C)(C)C)Oc1cc-2cnc1N (centres unmarked) the ring closure, isolated yield [1] was 23% and the ring closure, yield of all isomers ([2]; from Cc1nn(CC2CC2)cc1Cc1nn(C)nc1-c1ccc(F)cc1C(CO[Si](C)(C)C(C)(C)C)Oc1cc(Br)cnc1N, 30.0 mM) was 23%.
In the case of CCn1ccc2c1-c1cnc(N)c(c1)O[C@H](C)c1cc(F)ccc1-c1nn(C)nc1C2=O, the ring closure, yield after HPLC [3] is reported as 15% and the ring closure, yield of all isomers ([2]; from CCn1ccc(C(=O)c2nn(C)nc2-c2ccc(F)cc2[C@@H](C)Oc2cc(Br)cnc2N)c1, 38.0 mM, 12.0 h) is reported as 15%.
For C[C@H]1Oc2cc(cnc2N)-c2c(cnn2C2COC2)Cc2nn(C)nc2-c2ccc(F)cc21 [Example 83, (19R)-16-fluoro-10,19-dimethyl-3-(oxetan-3-yl)-20-oxa-3,4,9,10,11,23-hexaazapentacyclo[19.3.1.0^2,^6.0^8,^12.0^13,^18]pentacosa-1(24),2(6),4,8,11,13,15,17,21(25),22-decaen-22-amine], the Ki (ALK-wt) was < 0.05 µM, the Ki (ALK L1196M/G1202R) was < 0.05 µM and the Ki (ROS1-wt) was < 0.05 µM. The Ki (ROS1-G2032R) was < 0.05 µM, the Ki (TRKA-wt) was > 0.5 µM and the IC50 [4] was 0.0001 to 0.05 µM. It also gave an IC50 [5] of 0.0001 to 0.05 µM, an IC50 [6] of 0.0001 to 0.05 µM and an IC50 [7] of 0.05 to 0.5 µM. For the same compound, the IC50 (Ba/F3 cells TPM3-TRKA) was 0.05 to 0.5 µM, the TPM3-NTRK1-wt/CD74-ROS1-G2032R selectivity ratio ([8]; TRKA potency / CD74-ROS1-G2032R potency) was “A (bin A for very high selectivity, ratio >30-fold)” and the TPM3-NTRK1-wt/CD74-ROS1-wt selectivity ratio ([8]; TRKA potency / CD74-ROS1-wt potency) was “A (bin A for very high selectivity, ratio >30-fold)”. The TPM3-NTRK1-wt/EML4-ALK-L1196M-G1202R selectivity ratio ([8]; TRKA potency / EML4-ALK-L1196M-G1202R potency) was “C (bin C for moderate selectivity, ratio ≥1)” and the TPM3-NTRK1-wt/EML4-ALK-wt selectivity ratio ([8]; TRKA potency / EML4-ALK-wt potency) was “A (bin A for very high selectivity, ratio >30-fold)”.
